Results as given in ChEMBL document CHEMBL1201862, “PubChem BioAssay data set” (2004).
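Assay format: 96-well plates, 48-hour exposure. GI50 = concentration required for 50% inhibition of growth.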 Calls of active or inactive are those of the source. Rule as the data show it: active = GI50 up to about 1.1 µM and inactive = higher.

Experiments:
Experiment in all cases: inhibition of tumour cell growth, NCI panel, 48 h
HCT-116 = system: HCT-116
UO-31 = system: UO-31
SK-MEL-5 = system: SK-MEL-5
SF-268 = system: SF-268
UACC-257 = system: UACC-257
NCI-H522 = system: NCI-H522
M14 = system: M14
HL-60 = system: HL-60
Malme-3M = system: Malme-3M
OVCAR-4 = system: OVCAR-4
SK-OV-3 = system: SK-OV-3
U-251 = system: U-251
SF-539 = system: SF-539
MCF7 = system: MCF7
T47D = system: T47D
MDA-MB-231 = system: MDA-MB-231
PC-3 = system: PC-3
DU-145 = system: DU-145
NCI/ADR-RES = system: NCI/ADR-RES
MDA-N = system: MDA-N

Structure (SMILES)	GI50 (HCT-116)	GI50 (UO-31)	GI50 (SK-MEL-5)	GI50 (SF-268)	GI50 (UACC-257)	GI50 (NCI-H522)	GI50 (M14)	GI50 (HL-60)	GI50 (Malme-3M)	GI50 (OVCAR-4)	GI50 (SK-OV-3)	GI50 (U-251)	GI50 (SF-539)	GI50 (MCF7)	GI50 (T47D)	GI50 (MDA-MB-231)	GI50 (PC-3)	GI50 (DU-145)	GI50 (NCI/ADR-RES)	GI50 (MDA-N)
O=C(Nc1ccc(Cl)cc1Cl)C1C(=O)C(=O)N(c2ccc(Cl)cc2Cl)C1=O (stereo not given)	99.1 µM (inactive)	> 100 µM (inactive)	> 100 µM (inactive)	> 100 µM (inactive)	> 100 µM (inactive)	> 100 µM (inactive)	> 100 µM (inactive)	> 100 µM (inactive)	> 100 µM (inactive)	> 100 µM (inactive)	> 100 µM (inactive)	> 100 µM (inactive)	> 100 µM (inactive)							
NC1=CN(Cc2ccccc2)C2=N/C(=C\c3ccccc3)C(=O)N12	> 100 µM (inactive)	65.9 µM (inactive)	66.5 µM (inactive)	> 100 µM (inactive)	40.1 µM (inactive)	51.3 µM (inactive)	> 100 µM (inactive)	26.1 µM (inactive)	> 100 µM (inactive)	38.2 µM (inactive)	> 100 µM (inactive)	> 100 µM (inactive)	> 100 µM (inactive)	> 100 µM (inactive)	> 100 µM (inactive)	> 100 µM (inactive)	> 100 µM (inactive)	> 100 µM (inactive)	> 100 µM (inactive)	
COC(=O)C1=CC(O)CCC1c1ccc(OC)cc1 (stereo not given)	> 100 µM (inactive)	> 100 µM (inactive)	> 100 µM (inactive)	> 100 µM (inactive)	> 100 µM (inactive)	> 100 µM (inactive)	> 100 µM (inactive)	> 100 µM (inactive)	> 100 µM (inactive)	> 100 µM (inactive)	> 100 µM (inactive)	> 100 µM (inactive)	> 100 µM (inactive)							
Cc1cccc(NC(=S)Nc2ccc(Cl)cc2)n1	> 100 µM (inactive)	> 100 µM (inactive)	> 100 µM (inactive)	> 100 µM (inactive)	> 100 µM (inactive)		> 100 µM (inactive)	> 100 µM (inactive)		> 100 µM (inactive)	> 100 µM (inactive)	> 100 µM (inactive)	> 100 µM (inactive)	> 100 µM (inactive)	> 100 µM (inactive)	> 100 µM (inactive)	> 100 µM (inactive)	> 100 µM (inactive)	> 100 µM (inactive)	
C=CCC1(Sc2ccccn2)Sc2ccc3ccccc3c2-c2c(ccc3ccccc23)S1	> 100 µM (inactive)	> 100 µM (inactive)	> 100 µM (inactive)	> 100 µM (inactive)	> 100 µM (inactive)	> 100 µM (inactive)	> 100 µM (inactive)	> 100 µM (inactive)	> 100 µM (inactive)	> 100 µM (inactive)	> 100 µM (inactive)	> 100 µM (inactive)	> 100 µM (inactive)	> 100 µM (inactive)	> 100 µM (inactive)	> 100 µM (inactive)	> 100 µM (inactive)	> 100 µM (inactive)	> 100 µM (inactive)	
O=c1[nH]c2cc(C(F)(F)F)ccc2nc1Cc1ccccc1	71.6 µM (inactive)	78.3 µM (inactive)	> 100 µM (inactive)	44.2 µM (inactive)	> 100 µM (inactive)		> 100 µM (inactive)	> 100 µM (inactive)		63.7 µM (inactive)	33 µM (inactive)	76 µM (inactive)	63.2 µM (inactive)	> 100 µM (inactive)	38.5 µM (inactive)	30.8 µM (inactive)	> 100 µM (inactive)	> 100 µM (inactive)	67 µM (inactive)	
COc1ccc(-c2nc(-c3cnccn3)n(C3OC(CO)C(O)C3O)n2)cc1 (stereo not given)		> 10 µM (inactive)		> 10 µM (inactive)	> 10 µM (inactive)	> 10 µM (inactive)	> 10 µM (inactive)	> 10 µM (inactive)	> 10 µM (inactive)	> 10 µM (inactive)	> 10 µM (inactive)	> 10 µM (inactive)	> 10 µM (inactive)	> 10 µM (inactive)			> 10 µM (inactive)		> 10 µM (inactive)	
Cc1nc(N)nc(N)c1CCCc1ccccc1	2.7 µM (inactive)	20.8 µM (inactive)	4.94 µM (inactive)	5.4 µM (inactive)	12.7 µM (inactive)	7.18 µM (inactive)	4.78 µM (inactive)	6.35 µM (inactive)	1.73 µM (inactive)	18.4 µM (inactive)	57.5 µM (inactive)	5.36 µM (inactive)	13.9 µM (inactive)							
N#CCCN(CCC#N)C(=O)c1cccc(C(=O)N(CCC#N)CCC#N)c1	> 55.6 µM (inactive)	> 100 µM (inactive)	> 56.5 µM (inactive)	> 100 µM (inactive)	> 100 µM (inactive)	> 100 µM (inactive)	> 69 µM (inactive)	> 55.2 µM (inactive)	72.1 µM (inactive)	> 100 µM (inactive)	> 100 µM (inactive)	> 45.8 µM (inactive)	> 40.9 µM (inactive)							
CC(C)C1CC(O)O[C@@H]([C@@H](C)[C@H]2CC(=O)[C@@H]3[C@@H]4[C@@H](O)[C@H](O)[C@H]5[C@@H](O)[C@H](O)CC[C@]5(C)[C@H]4CC[C@]23C)C1 (stereo not given in full)	29.4 µM (inactive)	> 100 µM (inactive)	52.2 µM (inactive)	39.9 µM (inactive)	5.06 µM (inactive)	70.1 µM (inactive)	91.6 µM (inactive)	> 100 µM (inactive)	77.4 µM (inactive)	> 100 µM (inactive)	34.5 µM (inactive)	63 µM (inactive)	> 100 µM (inactive)							
CCOC(=O)C1=C(C(=O)c2ccc(C)cc2)C(c2cccc([N+](=O)[O-])c2)C(C(=O)c2ccc(C)cc2)=C(C(=O)OCC)N1	6.75 µM (inactive)	11.4 µM (inactive)	17.8 µM (inactive)	17.7 µM (inactive)	21.4 µM (inactive)	15.6 µM (inactive)	18.1 µM (inactive)	29.8 µM (inactive)	15.1 µM (inactive)	25.4 µM (inactive)	5.92 µM (inactive)	13.1 µM (inactive)	12.8 µM (inactive)	16 µM (inactive)	2.41 µM (inactive)	13.9 µM (inactive)	23.2 µM (inactive)	16.8 µM (inactive)	18.2 µM (inactive)	
Fc1ccc(F)c(C2SCc3nc4ccccc4n32)c1 (stereo not given)	61 µM (inactive)	41.3 µM (inactive)	20.3 µM (inactive)	66.4 µM (inactive)	41.4 µM (inactive)	36.1 µM (inactive)	72.1 µM (inactive)	20.1 µM (inactive)	57.1 µM (inactive)	95.7 µM (inactive)	> 100 µM (inactive)	> 100 µM (inactive)	> 100 µM (inactive)							
CN1CN(c2ccccc2)C2(CCN(CCc3csc4ccccc34)CC2)C1=O	11.3 µM (inactive)	1.8 µM (inactive)	17.5 µM (inactive)	28.8 µM (inactive)	14.4 µM (inactive)	15.9 µM (inactive)	16.7 µM (inactive)	9.38 µM (inactive)	15 µM (inactive)		25.9 µM (inactive)	14.5 µM (inactive)	11 µM (inactive)	13.3 µM (inactive)	18.3 µM (inactive)	> 10 µM (inactive)	12 µM (inactive)	18.7 µM (inactive)	13.8 µM (inactive)	
CN(C)CC(C)(C)C(/C=C/c1ccccc1)=N\Nc1ccccc1	0.705 µM (active)	0.0836 µM (active)	6.64 µM (inactive)	0.172 µM (active)	10.3 µM (inactive)	6.14 µM (inactive)	5.01 µM (inactive)	1.16 µM (inactive)	10.4 µM (inactive)	1.06 µM (active)	5 µM (inactive)	0.306 µM (active)	0.28 µM (active)							
N#C/C(=C1\SC(/N=N/c2ccccc2)C(=O)N1c1ccccc1)c1nc2ccccc2[nH]1 (stereo not given)	> 100 µM (inactive)	24.2 µM (inactive)	57 µM (inactive)	> 100 µM (inactive)	78.2 µM (inactive)	> 100 µM (inactive)	78.2 µM (inactive)	48.8 µM (inactive)	> 100 µM (inactive)	66.7 µM (inactive)	66.5 µM (inactive)	54.2 µM (inactive)	29.7 µM (inactive)							
CC(C)(C)C1CCC2c3c([nH]c4ccccc34)C3C(=O)N(c4ccccc4[N+](=O)[O-])C(=O)C3C2C1 (stereo not given)	7.48 µM (inactive)	20.4 µM (inactive)	13.5 µM (inactive)	> 10 µM (inactive)	22.2 µM (inactive)		13.8 µM (inactive)	11.7 µM (inactive)	16.4 µM (inactive)		37.5 µM (inactive)	16 µM (inactive)	21.5 µM (inactive)	3.1 µM (inactive)		10.6 µM (inactive)	7.6 µM (inactive)	8.39 µM (inactive)	12.7 µM (inactive)	13.2 µM (inactive)
O=C(Nc1ccc(Cl)cc1Cl)C1C(=O)N(c2ccc(Cl)cc2Cl)C(=O)/C1=N\Nc1ccc([N+](=O)[O-])cc1[N+](=O)[O-] (stereo not given)	26.9 µM (inactive)	15.8 µM (inactive)	79.8 µM (inactive)	22.3 µM (inactive)	29.4 µM (inactive)	21.5 µM (inactive)	52 µM (inactive)	35.2 µM (inactive)	64 µM (inactive)	43.5 µM (inactive)	> 100 µM (inactive)	48.8 µM (inactive)	36.6 µM (inactive)							
CC(=O)C1=C(O)C(N)C2Cc3c(c(O)c4c(O)c(C)ccc4c3C)C(=O)C2(O)C1=O (stereo not given)	1.28 µM (inactive)	3.18 µM (inactive)	1.19 µM (inactive)	1.18 µM (inactive)	2.48 µM (inactive)	3.98 µM (inactive)	2.47 µM (inactive)	2.23 µM (inactive)	1.29 µM (inactive)	5.61 µM (inactive)	3.53 µM (inactive)	0.885 µM (active)	1.35 µM (inactive)							
